ChEMBL document CHEMBL4145553, “Design, synthesis, and biological evaluation of novel amide and hydrazide based thioether analogs targeting Histone deacteylase (HDAC) enzymes” (Eur J Med Chem, 2018)
Calls of active or inactive are those of the source. The rule behind the calls is not given here.

Tests used:
CCRF-CEM = assay: Growth inhibition of human CCRF-CEM cells assessed as cell growth at 10^-8 M incubated for 48 hrs by sulforhodamine B assay relative to control; format: functional; conditions: read-out: Activity
NCI/ADR-RES = assay: Growth inhibition of human NCI/ADR-RES cells incubated for 48 hrs by sulforhodamine B assay; format: functional
OVCAR-4 [1] = assay: Growth inhibition of human OVCAR4 cells assessed as cell growth at 10^-7 M incubated for 48 hrs by sulforhodamine B assay relative to control; format: functional; conditions: OVCAR-4, 48 h, read-out: Activity
BT-549 = assay: Growth inhibition of human BT549 cells assessed as cell growth at 10^-4 M incubated for 48 hrs by sulforhodamine B assay relative to control; format: functional; conditions: BT-549, 48 h, read-out: Activity
HCT-116 = assay: Growth inhibition of human HCT116 cells assessed as cell growth at 10^-6 M incubated for 48 hrs by sulforhodamine B assay relative to control; format: functional; conditions: HCT-116, 48 h, read-out: Activity
RXF 393 = assay: Growth inhibition of human RXF393 cells assessed as cell growth at 10^-8 M incubated for 48 hrs by sulforhodamine B assay relative to control; format: functional; conditions: RXF 393, 48 h, read-out: Activity
SW-620 = assay: Growth inhibition of human SW620 cells assessed as cell growth at 10^-4 M incubated for 48 hrs by sulforhodamine B assay relative to control; format: functional; conditions: SW-620, 48 h, read-out: Activity
SNB-75 = assay: Growth inhibition of human SNB75 cells incubated for 48 hrs by sulforhodamine B assay; format: functional; conditions: SNB-75, 48 h
HL-60 [2] = assay: Antiproliferative activity against human HL60 cells after 24 hrs by MTT assay; format: functional; conditions: for GI50: Homo sapiens, HL-60, 24 h
MCF7 = assay: Growth inhibition of human MCF7 cells incubated for 48 hrs by sulforhodamine B assay; format: functional; conditions: MCF7, 48 h
KM12 = assay: Growth inhibition of human KM12 cells assessed as cell growth at 10^-6 M incubated for 48 hrs by sulforhodamine B assay relative to control; format: functional; conditions: KM12, 48 h, read-out: Activity
HT-29 [3] = assay: Growth inhibition of human HT-29 cells assessed as cell growth at 10^-5 M incubated for 48 hrs by sulforhodamine B assay relative to control; format: functional; conditions: HT-29, 48 h, read-out: Activity
MOLT-4 [4] = assay: Growth inhibition of human MOLT4 cells assessed as cell growth at 10^-7 M incubated for 48 hrs by sulforhodamine B assay relative to control; format: functional; conditions: MOLT-4, 48 h, read-out: Activity
DU-145 = assay: Growth inhibition of human DU145 cells incubated for 48 hrs by sulforhodamine B assay; format: functional; conditions: DU-145, 48 h
SNB-19 = assay: Growth inhibition of human SNB19 cells incubated for 48 hrs by sulforhodamine B assay; format: functional; conditions: SNB-19, 48 h
NCI-H460 = assay: Growth inhibition of human NCI-H460 cells assessed as cell growth at 10^-5 M incubated for 48 hrs by sulforhodamine B assay relative to control; format: functional; conditions: NCI-H460, 48 h, read-out: Activity
COLO 205 = assay: Growth inhibition of human COLO205 cells assessed as cell growth at 10^-6 M incubated for 48 hrs by sulforhodamine B assay relative to control; format: functional; conditions: COLO 205, 48 h, read-out: Activity
OVCAR-4 [5] = assay: Growth inhibition of human OVCAR4 cells assessed as cell growth at 10^-8 M incubated for 48 hrs by sulforhodamine B assay relative to control; format: functional; conditions: OVCAR-4, 48 h, read-out: Activity
HL-60 [6] = assay: Downregulation of HDAC8 mRNA expression in human HL60 cells by qRT-PCR method; format: functional, cell-based
SK-MEL-28 = assay: Growth inhibition of human SK-MEL-28 cells assessed as cell growth at 10^-4 M incubated for 48 hrs by sulforhodamine B assay relative to control; format: functional; conditions: SK-MEL-28, 48 h, read-out: Activity
786-0 = assay: Growth inhibition of human 786-0 cells assessed as cell growth at 10^-8 M incubated for 48 hrs by sulforhodamine B assay relative to control; format: functional; conditions: 786-0, 48 h, read-out: Activity
M14 = assay: Growth inhibition of human M14 cells assessed as cell growth at 10^-5 M incubated for 48 hrs by sulforhodamine B assay relative to control; format: functional; conditions: M14, 48 h, read-out: Activity
HT-29 [7] = assay: Growth inhibition of human HT-29 cells assessed as cell growth at 10^-8 M incubated for 48 hrs by sulforhodamine B assay relative to control; format: functional; conditions: HT-29, 48 h, read-out: Activity
EKVX = assay: Growth inhibition of human EKVX cells assessed as cell growth at 10^-6 M incubated for 48 hrs by sulforhodamine B assay relative to control; format: functional; conditions: read-out: Activity
TK-10 = assay: Growth inhibition of human TK10 cells assessed as cell growth at 10^-7 M incubated for 48 hrs by sulforhodamine B assay relative to control; format: functional; conditions: TK-10, 48 h, read-out: Activity
SK-OV-3 = assay: Growth inhibition of human SKOV3 cells assessed as cell growth at 10^-5 M incubated for 48 hrs by sulforhodamine B assay relative to control; format: functional; conditions: SK-OV-3, 48 h, read-out: Activity
A498 = assay: Growth inhibition of human A498 cells assessed as cell growth at 10^-5 M incubated for 48 hrs by sulforhodamine B assay relative to control; format: functional; conditions: A498, 48 h, read-out: Activity
HL-60 [8] = assay: Downregulation of HDAC2 mRNA expression in human HL60 cells by qRT-PCR method relative to control; format: functional
HCT-15 = assay: Growth inhibition of human HCT15 cells assessed as cell growth at 10^-8 M incubated for 48 hrs by sulforhodamine B assay relative to control; format: functional; conditions: HCT-15, 48 h, read-out: Activity
MOLT-4 [9] = assay: Growth inhibition of human MOLT4 cells assessed as cell growth at 10^-5 M incubated for 48 hrs by sulforhodamine B assay relative to control; format: functional; conditions: MOLT-4, 48 h, read-out: Activity
HOP-62 = assay: Growth inhibition of human HOP62 cells assessed as cell growth at 10^-6 M incubated for 48 hrs by sulforhodamine B assay relative to control; format: functional; conditions: HOP-62, 48 h, read-out: Activity
[10] = read-out: LC50 (the source's name)
[11] = read-out: pLC50 (the source's name) (converted)

CCS/C(Nc1ccccc1)=C(\C#N)C(=O)Nc1ccc(OC)cc1 was tested, and the growth at 0.01 µM (CCRF-CEM) was 91%, the GI50 (NCI/ADR-RES; read-out: GI50) was 2.62 µM and the CC50 (NCI/ADR-RES; [10]) was > 100 µM. For the same compound, the TGI (NCI/ADR-RES; read-out: TGI) was > 100 µM, the GI50 (NCI/ADR-RES; read-out: pGI50 (converted)) was 2.63 µM and the CC50 (NCI/ADR-RES; [11]) was > 100 µM. The TGI (NCI/ADR-RES; read-out: pTGI) was > 100 µM, the growth at 0.1 µM (OVCAR-4 [1]) was 88% and the growth at 100 µM (BT-549) was 12%. For the same compound, the growth at 1 µM (HCT-116) was 69%, the growth at 0.01 µM (RXF 393) was 106% and the growth at 100 µM (SW-620) was 14%. For the same compound, the GI50 (SNB-75; read-out: GI50) was 2.13 µM, the CC50 (SNB-75; [10]) was > 100 µM and the TGI (SNB-75; read-out: TGI) was 7.21 µM. The GI50 (SNB-75; read-out: pGI50 (converted)) was 2.14 µM, the CC50 (SNB-75; [11]) was > 100 µM and the TGI (SNB-75; read-out: pTGI (converted)) was 7.24 µM. The Activity (HL-60 [2]) was “Dose-dependent effect”, the GI50 (HL-60 [2]) was 2.87 µM and the GI50 (MCF7; read-out: GI50) was 2.71 µM. For the same compound, the CC50 (MCF7; [10]) was > 100 µM, the TGI (MCF7; read-out: TGI) was > 100 µM and the GI50 (MCF7; read-out: pGI50 (converted)) was 2.69 µM. For the same compound, the CC50 (MCF7; [11]) was > 100 µM, the TGI (MCF7; read-out: pTGI) was > 100 µM and the growth at 1 µM (KM12) was 68%. It also gave a growth at 10 µM (HT-29 [3]) of 8%, a growth at 0.1 µM (MOLT-4 [4]) of 90% and a GI50 (DU-145; read-out: GI50) of 3.48 µM. The CC50 (DU-145; [10]) was > 100 µM, the TGI (DU-145; read-out: TGI) was 49.8 µM and the GI50 (DU-145; read-out: pGI50 (converted)) was 3.47 µM. For the same compound, the CC50 (DU-145; [11]) was > 100 µM, the TGI (DU-145; read-out: pTGI (converted)) was 50.1 µM and the GI50 (SNB-19; read-out: GI50) was 3.55 µM. The CC50 (SNB-19; [10]) was > 100 µM, the TGI (SNB-19; read-out: TGI) was > 100 µM and the GI50 (SNB-19; read-out: pGI50 (converted)) was 3.55 µM. For the same compound, the CC50 (SNB-19; [11]) was > 100 µM, the TGI (SNB-19; read-out: pTGI) was > 100 µM and the growth at 10 µM (NCI-H460) was 10%. The growth at 1 µM (COLO 205) was 96%, the growth at 0.01 µM (OVCAR-4 [5]) was 104% and the Activity (HL-60 [6]) was “Active”. For the same compound, the growth at 100 µM (SK-MEL-28) was 37%, the growth at 0.01 µM (786-0) was 97% and the growth at 10 µM (M14) was 10%. The growth at 0.01 µM (HT-29 [7]) was 109%, the growth at 1 µM (EKVX) was 84% and the growth at 0.1 µM (TK-10) was 95%. The growth at 10 µM (SK-OV-3) was 10%, the growth at 10 µM (A498) was 9% and the “fold change (FC)” value (HL-60 [8]) was “<=10”. It also gave a growth at 0.01 µM (HCT-15) of 98%, a growth at 10 µM (MOLT-4 [9]) of 21% and a growth at 1 µM (HOP-62) of 78%.

With CCS/C(Nc1ccccc1)=C(\C#N)C(=O)N/N=C\c1ccc(Cl)cc1Cl the growth at 0.01 µM (CCRF-CEM) was 103%, the GI50 (NCI/ADR-RES; read-out: GI50) was 3.16 µM and the CC50 (NCI/ADR-RES; [10]) was > 100 µM. For the same compound, the TGI (NCI/ADR-RES; read-out: TGI) was > 100 µM, the GI50 (NCI/ADR-RES; read-out: pGI50 (converted)) was 3.16 µM and the CC50 (NCI/ADR-RES; [11]) was > 100 µM. For the same compound, the TGI (NCI/ADR-RES; read-out: pTGI) was > 100 µM, the growth at 0.1 µM (OVCAR-4 [1]) was 89% and the growth at 100 µM (BT-549) was 7%. For the same compound, the growth at 1 µM (HCT-116) was 89%, the growth at 0.01 µM (RXF 393) was 93% and the growth at 100 µM (SW-620) was 25%. For the same compound, the GI50 (SNB-75; read-out: GI50) was 2.15 µM, the CC50 (SNB-75; [10]) was > 100 µM and the TGI (SNB-75; read-out: TGI) was 9.37 µM. For the same compound, the GI50 (SNB-75; read-out: pGI50 (converted)) was 2.14 µM, the CC50 (SNB-75; [11]) was > 100 µM and the TGI (SNB-75; read-out: pTGI (converted)) was 9.33 µM. For the same compound, the Activity (HL-60 [2]) was “Dose-dependent effect”, the GI50 (HL-60 [2]) was 3.2 µM and the GI50 (MCF7; read-out: GI50) was 2.99 µM. The CC50 (MCF7; [10]) was > 100 µM, the TGI (MCF7; read-out: TGI) was > 100 µM and the GI50 (MCF7; read-out: pGI50 (converted)) was 3.02 µM. The CC50 (MCF7; [11]) was > 100 µM, the TGI (MCF7; read-out: pTGI) was > 100 µM and the growth at 1 µM (KM12) was 90%. The growth at 10 µM (HT-29 [3]) was 11%, the growth at 0.1 µM (MOLT-4 [4]) was 82% and the GI50 (DU-145; read-out: GI50) was 3.57 µM. For the same compound, the CC50 (DU-145; [10]) was > 100 µM, the TGI (DU-145; read-out: TGI) was > 100 µM and the GI50 (DU-145; read-out: pGI50 (converted)) was 3.55 µM. The CC50 (DU-145; [11]) was > 100 µM, the TGI (DU-145; read-out: pTGI (converted)) was > 100 µM and the GI50 (SNB-19; read-out: GI50) was 4.17 µM. For the same compound, the CC50 (SNB-19; [10]) was > 100 µM, the TGI (SNB-19; read-out: TGI) was > 100 µM and the GI50 (SNB-19; read-out: pGI50 (converted)) was 4.17 µM. For the same compound, the CC50 (SNB-19; [11]) was > 100 µM, the TGI (SNB-19; read-out: pTGI) was > 100 µM and the growth at 10 µM (NCI-H460) was 9%. The growth at 1 µM (COLO 205) was 99%, the growth at 0.01 µM (OVCAR-4 [5]) was 98% and the Activity (HL-60 [6]) was “Active”. For the same compound, the growth at 100 µM (SK-MEL-28) was 45%, the growth at 0.01 µM (786-0) was 95% and the growth at 10 µM (M14) was -1%. The growth at 0.01 µM (HT-29 [7]) was 105%, the growth at 1 µM (EKVX) was 87% and the growth at 0.1 µM (TK-10) was 91%. For the same compound, the growth at 10 µM (SK-OV-3) was 19%, the growth at 10 µM (A498) was 3% and the “fold change (FC)” value (HL-60 [8]) was “<=10”. The growth at 0.01 µM (HCT-15) was 99%, the growth at 10 µM (MOLT-4 [9]) was 22% and the growth at 1 µM (HOP-62) was 76%.
